Each structure is given as a SMILES string. Activity calls are given as the source filed them. No rule for the calls is given here.

The test system of this data set is CCRIS mutagenicity, Ames/micronucleus/aberration tests. Put plainly: CCRIS mutagenicity studies.
Setting [1] is: Test System: AMES SALMONELLA TYPHIMURIUM, Strain/Indicator: TA98, Metabolic Activation: HAMSTER, LIVER, S-9, AROCLOR 1254 (10%), Method: PREINCUBATION
Where [2] appears, read: Test System: AMES SALMONELLA TYPHIMURIUM, Strain/Indicator: TA98, Metabolic Activation: NONE, Method: PREINCUBATION
Setting [3] is: Test System: AMES SALMONELLA TYPHIMURIUM, Strain/Indicator: TA98, Metabolic Activation: RAT, LIVER, S-9, AROCLOR 1254 (10%), Method: PREINCUBATION
Setting [4] is: Test System: AMES SALMONELLA TYPHIMURIUM, Strain/Indicator: TA100, Metabolic Activation: HAMSTER, LIVER, S-9, AROCLOR 1254 (10%), Method: PREINCUBATION
The mark [5] stands for this setting: Test System: AMES SALMONELLA TYPHIMURIUM, Strain/Indicator: TA100, Metabolic Activation: NONE, Method: PREINCUBATION
Setting [6] is: Test System: AMES SALMONELLA TYPHIMURIUM, Strain/Indicator: TA100, Metabolic Activation: RAT, LIVER, S-9, AROCLOR 1254 (10%), Method: PREINCUBATION
Where [7] appears, read: Test System: AMES SALMONELLA TYPHIMURIUM, Strain/Indicator: TA1535, Metabolic Activation: HAMSTER, LIVER, S-9, AROCLOR 1254 (10%), Method: PREINCUBATION
The mark [8] stands for this setting: Test System: AMES SALMONELLA TYPHIMURIUM, Strain/Indicator: TA1535, Metabolic Activation: NONE, Method: PREINCUBATION
Setting [9] is: Test System: AMES SALMONELLA TYPHIMURIUM, Strain/Indicator: TA1535, Metabolic Activation: RAT, LIVER, S-9, AROCLOR 1254 (10%), Method: PREINCUBATION
[10] abbreviates: Test System: AMES SALMONELLA TYPHIMURIUM, Strain/Indicator: TA1537, Metabolic Activation: HAMSTER, LIVER, S-9, AROCLOR 1254 (10%), Method: PREINCUBATION
Setting [11] is: Test System: AMES SALMONELLA TYPHIMURIUM, Strain/Indicator: TA1537, Metabolic Activation: NONE, Method: PREINCUBATION
[12] abbreviates: Test System: AMES SALMONELLA TYPHIMURIUM, Strain/Indicator: TA1537, Metabolic Activation: RAT, LIVER, S-9, AROCLOR 1254 (10%), Method: PREINCUBATION
Where [13] appears, read: Test System: AMES SALMONELLA TYPHIMURIUM, Strain/Indicator: TA98, Metabolic Activation: NONE, Method: STANDARD PLATE.
[14] abbreviates: Test System: AMES SALMONELLA TYPHIMURIUM, Strain/Indicator: TA100, Metabolic Activation: NONE, Method: STANDARD PLATE.
Setting [15] is: Test System: AMES SALMONELLA TYPHIMURIUM, Strain/Indicator: TA98, Metabolic Activation: RAT, LIVER, S-9, AROCLOR 1254, Method: STANDARD PLATE.
Setting [16] is: Test System: AMES SALMONELLA TYPHIMURIUM, Strain/Indicator: TA100, Metabolic Activation: RAT, LIVER, S-9, AROCLOR 1254, Method: STANDARD PLATE.
Setting [17] is: Test System: AMES SALMONELLA TYPHIMURIUM, Strain/Indicator: TA1535, Metabolic Activation: NONE, Method: STANDARD PLATE.
Where [18] appears, read: Test System: AMES SALMONELLA TYPHIMURIUM, Strain/Indicator: TA1535, Metabolic Activation: RAT, LIVER, S-9, AROCLOR 1254, Method: STANDARD PLATE.
[19] abbreviates: Test System: AMES SALMONELLA TYPHIMURIUM, Strain/Indicator: TA1537, Metabolic Activation: NONE, Method: STANDARD PLATE.
The mark [20] stands for this setting: Test System: AMES SALMONELLA TYPHIMURIUM, Strain/Indicator: TA1537, Metabolic Activation: RAT, LIVER, S-9, AROCLOR 1254, Method: STANDARD PLATE.
Setting [21] is: Test System: AMES SALMONELLA TYPHIMURIUM, Strain/Indicator: TA1538, Metabolic Activation: NONE, Method: STANDARD PLATE.
Where [22] appears, read: Test System: AMES SALMONELLA TYPHIMURIUM, Strain/Indicator: TA1538, Metabolic Activation: RAT, LIVER, S-9, AROCLOR 1254, Method: STANDARD PLATE.

As to `Oc1c(Br)c(Br)c(Br)c(Br)c1Br`, the mutagenic call is, setting by setting: under setting [1], “inactive; negative”; under setting [2], “inactive; negative”; under setting [3], “inactive; negative”; under setting [4], “inactive; negative”; under setting [5], “inactive; negative”; under setting [6], “inactive; negative”. The mutagenic call reads like this: under setting [7], “inactive; negative”; under setting [8], “inactive; negative”; under setting [9], “inactive; negative”; under setting [10], “inactive; negative”; under setting [11], “inactive; negative”; under setting [12], “inactive; negative”.

In the case of `Cc1cc2ccccc2cc1[N+](=O)[O-]`, under setting [2], the mutagenic call is “inactive; negative”.

As to `CC(C)(C)N.CC(C)(C)N.[Cl][Pt][Cl]`, the mutagenic call by setting is: (Test System: AMES SALMONELLA TYPHIMURIUM, Strain/Indicator: TA92, Metabolic Activation: NONE, Method: STANDARD PLATE) “inactive; negative”; under setting [13], “active; positive”; under setting [14], “active; positive”; (Test System: AMES SALMONELLA TYPHIMURIUM, Strain/Indicator: TA2410, Metabolic Activation: NONE, Method: STANDARD PLATE) “active; positive”.

With `CCCCOC(=O)CC(CC(=O)OCCCC)(OC(C)=O)C(=O)OCCCC`, the mutagenic call reads like this: (Test System: AMES SALMONELLA TYPHIMURIUM, Strain/Indicator: TA98, Metabolic Activation: HAMSTER, LIVER, S-9, AROCLOR 1254, Method: STANDARD PLATE) “inactive; negative”; under setting [13], “inactive; negative”; under setting [15], “inactive; negative”; (Test System: AMES SALMONELLA TYPHIMURIUM, Strain/Indicator: TA100, Metabolic Activation: HAMSTER, LIVER, S-9, AROCLOR 1254, Method: STANDARD PLATE) “inactive; negative”; under setting [14], “inactive; negative”; under setting [16], “inactive; negative”. Besides, the mutagenic call was “inactive; negative” (Test System: AMES SALMONELLA TYPHIMURIUM, Strain/Indicator: TA1535, Metabolic Activation: HAMSTER, LIVER, S-9, AROCLOR 1254, Method: STANDARD PLATE); “inactive; negative” under setting [17]; “inactive; negative” under setting [18]; “inactive; negative” (Test System: AMES SALMONELLA TYPHIMURIUM, Strain/Indicator: TA1537, Metabolic Activation: HAMSTER, LIVER, S-9, AROCLOR 1254, Method: STANDARD PLATE); “inactive; negative” under setting [19]; “inactive; negative” under setting [20]. Further, the mutagenic call is “inactive; negative” (Test System: AMES SALMONELLA TYPHIMURIUM, Strain/Indicator: TA1538, Metabolic Activation: HAMSTER, LIVER, S-9, AROCLOR 1254, Method: STANDARD PLATE); “inactive; negative” under setting [21]; “inactive; negative” under setting [22]; “inactive; negative. reevaluation of results: inconclusive” (Test System: MOUSE LYMPHOMA, Strain/Indicator: L5178Y (TK+/TK-), Metabolic Activation: NONE, Method: SUSPENSION/PLATE); “inactive; negative. reevaluation of results: negative” (Test System: MOUSE LYMPHOMA, Strain/Indicator: L5178Y (TK+/TK-), Metabolic Activation: RAT, LIVER, S-9, AROCLOR 1254, Method: SUSPENSION/PLATE).

On to `CC(S)C(=O)NCC(=O)O` (configuration not stated), for which the mutagenic call was “inactive; negative” under setting [13]; “inactive; negative” under setting [15]; “inactive; negative” under setting [14]; “inactive; negative” under setting [16]; “inactive; negative” under setting [17]; “inactive; negative” under setting [18]. Besides, the mutagenic call under setting [19] was “inactive; negative”, the mutagenic call under setting [20] was “inactive; negative”, the mutagenic call under setting [21] is “inactive; negative” and the mutagenic call under setting [22] was “inactive; negative”.

On to `CC(C)COC(=O)c1ccccc1N`, for which the mutagenic call under setting [1] was “inactive; negative”; the mutagenic call under setting [2] is “inactive; negative”; the mutagenic call under setting [3] is “inactive; negative”; the mutagenic call under setting [4] is “inactive; negative”; the mutagenic call under setting [5] is “inactive; negative”; the mutagenic call under setting [6] is “inactive; negative”. Further, the mutagenic call is, setting by setting: under setting [7], “inactive; negative”; under setting [8], “inactive; negative”; under setting [9], “inactive; negative”; under setting [10], “inactive; negative”; under setting [11], “inactive; negative”; under setting [12], “inactive; negative”.

As for `CCN(CCCl)CCCNc1c2ccccc2nc2ccccc12`, the mutagenic call reads like this: under setting [13], “active; positive”; under setting [14], “active; positive”; under setting [17], “inactive; negative”; (Test System: AMES SALMONELLA TYPHIMURIUM, Strain/Indicator: TA1536, Metabolic Activation: NONE, Method: STANDARD PLATE) “active; positive”; under setting [19], “active; positive”; under setting [21], “active; positive”.

Values taken from PubChem BioAssay AID1259407 (Chemical Carcinogenesis Research Information System (CCRIS), 2018).
